Data set [1] is described as follows: Microsomal bioavailability (Table 2). As to conditions: read-out: Microsomal bioavailability F (%). Type of data set: in vitro ADME.
For data set [2], the target named is T1, ERβ (Homo sapiens, UniProt Q92731). In words: R-SAT functional assay, ERβ. Details: expressed in transfected cells; host or cells: transient transfection. In kind it is cell-based. The text has this:
(§1) R-SAT® (Receptor Selection and Amplification Technology) is a cell-based functional assay that allows one to monitor receptor-dependent proliferative responses and has been described elsewhere. […] This process is achieved by partial cellular transformation via loss of contact inhibition and growth factor dependency. Monitoring is achieved by transfecting the cells with a β-galactosidase reporter gene vector whose expression is under a constitutively active promoter. Briefly, NIH-3T3 fibroblasts were plated overnight in 96-wells plates in DMEM 10% calf serum (Hyclone) and grown to 60-70% confluency prior to transfection. Transient transfections were performed using Polyfect (Qiagen) according to manufacturer's instructions. Typically a transfection mix would consist of the receptor and the β-galactosidase expression vectors. Sixteen hours post-transfection, cells were incubated with different doses of ligand in DMEM containing 30% Ultraculture (Hyclone) and 0.4% calf serum (Hyclone) to generate a dose response curve. […] Plates were read using a microplate reader at 420 nm. Data from R-SAT® assays were fit to the equation: r=A+B(x/(x+c)), where A=minimum response, B=maximum response minus minimum response, c=EC50, r=response, and x=concentration of ligand. Curves were generated using the curve fitting softwares Excel Fit and GraphPad Prism (San Diego, Calif.). Luciferase Reporter Gene Assay

Data set [3] has as its target T1, ERβ. In words: Luciferase reporter gene assay (3*ERE) in HEK293 cells, ERβ. In kind it is cell-based. As to conditions: for Emax: read-out: Luciferase Erβ % Eff. Details: expressed in transfected cells; host or cells: HEK293 cells, transient transfection. The protocol:
(§2) HEK293 cells were grown to 70% confluency in DMEM containing 10% calf serum (Hyclone) prior to transfection. On the day of transfection (day 1), expression vectors for ERα or ERβ were cotransfected along a construct containing a synthetic 3*ERE upstream of the luciferase gene (Panomics), using Polyfect (Qiagen) per manufacturer's recommendations (ERE being estrogen response element). Sixteen hours post-transfection, cells were incubated in serum free DMEM. […] Cells extracts were then obtained by lyzing and the Luciferase activity measured, all of these steps performed using a commercially available kit (Promega).
(In a reporter assay the amount or activity of a reporter protein is the signal.)

Data set [4] deals with T1, ERβ. The experiment in a line: Competitive 3H-estradiol binding assay, ERβ. More on the design: expressed in transfected cells; host or cells: HEK293 cells, transient transfection. The procedure:
(§3) Cells were then harvested by scraping in ice-cold PBS and subsequently lysed using a cold buffer containing 10 mM Tris pH 7.4, 1 mM EDTA, 1 mM DTT before being subjected to polytron twice for 10 seconds. Cytosolic extracts were isolated by centrifugation at 15000 g for 30 minutes at 4° C. Competitive binding of the test compounds or the estradiol control was performed on 20 μL extract by overnight incubation at 4° C. in a total volume of 100 μL containing 1 nM ^3H-estradiol (Perkin Elmer, Boston, Mass.). The bound fraction was separated from the unbound one by the addition of 100 μL of Dextran coated charcoal, incubated for 10 minutes and subsequent centrifugation at 1000 rpm for 10 minutes. Samples (100 μL per sample) were then analyzed by liquid scintillation. Data was then analyzed using the curve fitting software GraphPad Prism.

Data set [5] concerns the target T2, ERα (Homo sapiens, UniProt P03372).
T2 sequence (P03372 1-595): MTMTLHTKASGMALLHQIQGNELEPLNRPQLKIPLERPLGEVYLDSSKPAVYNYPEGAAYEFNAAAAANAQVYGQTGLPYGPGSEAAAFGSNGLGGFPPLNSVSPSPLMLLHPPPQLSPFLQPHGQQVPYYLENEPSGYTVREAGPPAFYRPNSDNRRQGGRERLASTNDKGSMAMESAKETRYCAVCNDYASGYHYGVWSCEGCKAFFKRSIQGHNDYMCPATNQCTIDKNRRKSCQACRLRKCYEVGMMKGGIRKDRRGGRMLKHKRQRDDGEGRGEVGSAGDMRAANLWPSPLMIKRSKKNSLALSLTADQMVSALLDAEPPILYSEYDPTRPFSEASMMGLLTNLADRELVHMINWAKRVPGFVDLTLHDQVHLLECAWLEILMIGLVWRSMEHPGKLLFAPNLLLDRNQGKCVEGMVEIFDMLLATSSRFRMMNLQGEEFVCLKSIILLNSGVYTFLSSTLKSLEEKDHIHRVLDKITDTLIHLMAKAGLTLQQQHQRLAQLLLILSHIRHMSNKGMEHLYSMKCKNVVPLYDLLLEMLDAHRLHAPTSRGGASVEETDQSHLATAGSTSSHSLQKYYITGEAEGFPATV
In words: R-SAT functional assay, ERα. In kind it is cell-based. Details: expressed in transfected cells; host or cells: NIH-3T3 fibroblasts, transient transfection. As to conditions: NIH-3T3 cells; for EC50: na = not active, read-out: R-SAT Erα pEC50 (converted).
Source text: as §1

The target of data set [6] is T1, ERβ. In words: R-SAT functional assay, ERβ. In kind it is cell-based. Details: expressed in transfected cells; host or cells: transient transfection. The source holds these as a separate data set.
Data set [7] concerns the target T2, ERα. In words: Competitive 3H-estradiol binding assay, ERα. As to conditions: 1 nM 3H-estradiol, HEK293T cytosolic extract; read-out: Binding ERα pKi (converted). The procedure: as §3, with “HEK293T cells were transiently transfected for 48 hours with expression vectors encoding ERα or ERβ, before being serum starved for 4-6 hours. Cells” for “Cells”
A short description of data set [8]: Metabolic stability in liver microsomes, rat. Type of data set: in vitro ADME. As to conditions: low value = metabolically stable. The procedure: (§4) Also the metabolic stability in liver microsomes was tested for some compounds.
A general note: Liver microsomes are vesicles of endoplasmic reticulum, rich in cytochrome P450 enzymes.

The target in data set [9] is T2, ERα. In words: Luciferase reporter gene assay (3*ERE) in HEK293 cells, ERα. Type of data set: cell-based. Details: expressed in transfected cells; host or cells: transient transfection. As to conditions: 48 hours; for EC50: na = not active, read-out: Luciferase Erα pEC50 (converted). The protocol: as §2
Data set [10] is described as follows: Metabolic stability in liver microsomes, human. Type of data set: in vitro ADME. As to conditions: low value = metabolically stable. The protocol:
as §4

Data set [11] deals with Taxol-induced allodynia. In words: Taxol-induced neuropathy model. In kind it is in vivo, male SD rats. As to conditions: for effect on Taxol-induced allodynia: s.c. (gabapentin i.p.), Compound 8 at 10 and 30 mg/kg, 2 hours post-dose. The protocol: Neuropathy was induced in male SD rats by 4×1 mg/kg consecutive daily doses of taxol as described (Naguib M, Diaz P, Xu J J, Astruc-Diaz F, Craig S, Vivas-Mejia P, Brown D L. MDA7: a novel selective agonist for CB2 receptors that prevents allodynia in rat neuropathic pain models. Br J. Pharmacol. 2008 December; 155(7):1104-16). The presence of tactile allodynia (von Frey filament 50% response threshold of <5 g) was confirmed prior to inclusion in the study. Drugs were administered sub-cutaneously (s.c.) except gabapentin was given intra-peritoneally (i.p.). Doses are given in mg/kg. * p<0.05.
Allodynia was assessed by applying a light tactile stimulus (Von Frey hairs) to the plantar surface of the surgical paw until the 50% threshold was established. A positive response was recorded if the paw was sharply withdrawn. Eight VonFrey hairs were used (3.61, 3.84, 4.08, 4.31, 4.56, 4.74, 4.93 and 5.18). MPE (%) was calculated as [(Rdrug−Rveh)/(Rsham−Rveh)]*100% where Rveh was 4 and Rsham was 13. Repeat dosing (FIG. 10C) was performed by administering the indicated doses of Compound 8 once daily via the s.c. route. Efficacy was measured 2 hours post-dose.

Data set [12] can be described thus: Unidirectional permeability across MatTek EpiOral buccal tissue. In kind it is in vitro ADME, human. As to conditions: test compound 10 μM co-dosed with controls atenolol and caffeine 100 μM, DPBS pH 7.4, 37° C. The procedure: EpiOral→tissues plated in 24-well plates were obtained from MatTek Corporation (Ashland, Mass., USA). The assay buffer was Dulbeccos' Phosphate Buffered Saline (DPBS) without Ca & Mg chloride, pH 7.4. Each test compound was co-dosed with the two control compounds. Targeting dosing concentrations were 10 μM for each test compound and 100 μM for the two control compounds. Prior to the permeability assay onset, the tissues were preequilibrated in a pre-warmed EpiOral assay medium for one hour at 37° C. in a 5% CO2 incubator. The EpiOral assay medium was aspirated after the pre-equilibration, and the tissues were washed twice with the DPBS buffer. The receiver chambers were filled with 0.75 mL of the DPBS buffer, while the donor chambers received 0.4 mL of the dosing solutions. The assay plates were placed at 37° C. in a 5% CO2 incubator. The receiver samples (200 μL) were collected at 30, 60, and 120 minutes, and replaced with an equal volume of fresh pre-warmed receiver buffer (except for the last time point of 120 minutes). The donor sides were sampled at 0 and 120 minutes. The test compounds were then analyzed using LC-MS/MS.

Setting [13] is: NIH3T3, read-out: R-SAT Erβ % Eff.
[14] abbreviates: NIH3T3, NIH-3T3 cells, read-out: R-SAT Erβ % Eff.

Each structure is given as a SMILES string. Where “and” joins values, the source holds several entries; their conditions need not be identical. Equal entries are not always repeated.

T1 sequence (Q92731 whole entry, species assumed): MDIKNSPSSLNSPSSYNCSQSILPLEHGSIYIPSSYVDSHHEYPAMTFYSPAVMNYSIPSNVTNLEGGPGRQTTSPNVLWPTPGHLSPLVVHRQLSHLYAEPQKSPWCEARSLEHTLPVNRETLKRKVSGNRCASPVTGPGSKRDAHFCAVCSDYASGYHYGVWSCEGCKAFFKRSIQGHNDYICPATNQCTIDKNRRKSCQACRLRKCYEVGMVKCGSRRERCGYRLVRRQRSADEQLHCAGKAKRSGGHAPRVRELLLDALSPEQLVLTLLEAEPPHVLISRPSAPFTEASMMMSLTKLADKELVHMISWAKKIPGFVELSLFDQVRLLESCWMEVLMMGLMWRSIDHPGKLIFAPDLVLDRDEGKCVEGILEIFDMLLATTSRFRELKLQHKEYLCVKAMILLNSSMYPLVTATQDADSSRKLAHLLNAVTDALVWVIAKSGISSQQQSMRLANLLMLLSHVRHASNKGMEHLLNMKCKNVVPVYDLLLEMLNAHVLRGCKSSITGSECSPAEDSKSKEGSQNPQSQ

For the compound `COc1ccc(C2(c3ccccc3F)CCC(F)(F)CC2)cc1` [Compound 9, 1-(4,4-Difluoro-1-(4-methoxyphenyl)cyclohexyl)-2-fluorobenzene], the Microsomal bioavailability (predicted from microsomes) in data set [1] is 19.6%.
In the case of `Oc1ccc(C2(c3ccccc3F)CCC(F)(F)CC2)cc1F` [Compound 10, 4-(4,4-Difluoro-1-(2-fluorophenyl)cyclohexyl)-2-fluorophenol], the Emax came out at 57% in data set [2] (setting [13]) and 55% in data set [3] (HEK293, 48 h). Moreover, the EC50 in data set [3] was 2 nM; in data set [5], 1000 nM; in [6], 2.51 nM. In addition, the Ki is 5.01 nM in data set [4] and 251 nM in data set [7]. In addition, the “R-SAT Erα % Eff” value in data set [5] is on record as 100%. Also, the results for the intrinsic metabolic clearance (microsomal CLint) in data set [8] and in data set [10] were 95 µL/min/mg and 11 µL/min/mg, respectively. The “Luciferase Erα % Eff” value in data set [9] amounted to 2%.
As to `Oc1ccc(C2(c3ccccc3Cl)CCC(F)(F)CC2)cc1` [Compound 12], the Emax in [2] (setting [14]) is 42%; in [3] (HEK293 cells, 48 hours), 74%. Moreover, the values for the EC50 in data set [3] and in [6] were 0.631 nM and 3.16 nM, respectively. Moreover, the Ki was 3.98 nM in [4] and 100 nM in data set [7]. In addition, the “R-SAT Erα % Eff” value in [5] is 74%. In [8], this compound showed a microsomal CLint of 147 µL/min/mg. For the same compound, the “Luciferase Erα % Eff” value in data set [9] is 30%.
For `Oc1ccc(C2(c3ccccc3Cl)CCC(F)(F)CC2)cc1F` [Compound 14], the Emax in data set [2] (setting [13]) turned out to be 60%; in data set [3] (HEK293, 48 h), 52%. The figures for the EC50 in data set [3], in [5] and in data set [6] were 0.631 nM, 100 nM and 1.58 nM, respectively. Besides, the Ki was 3.98 nM in data set [4] and 50.1 nM in data set [7]. In data set [5], the “R-SAT Erα % Eff” value came to 145%. The compound further registered an intrinsic metabolic clearance (microsomal CLint) in [8] of 113 µL/min/mg. Moreover, in data set [9], the “Luciferase Erα % Eff” value was determined as 82%.
With `Oc1ccc(C2(c3ccccc3F)CCCCC2)cc1` [Compound 152], the Emax is 69% in data set [2] (setting [14]) and 126% in data set [3] (HEK293 cells, 48 hours). Also, the EC50 is 20 nM in data set [3], 1580 nM in data set [5], 12.6 nM in data set [6] and 3980 nM in [9]. The Ki in [4] was 63.1 nM. Also, the “R-SAT Erα % Eff” value in data set [5] was 29%. In addition, the results for the microsomal CLint in data set [8] and in data set [10] were 405 µL/min/mg and 27 µL/min/mg, respectively. Besides, the “Luciferase Erα % Eff” value in data set [9] came out at 48%.
For the compound `Oc1ccc(C2(c3ccccc3Cl)CCCCC2)cc1` [Compound 558], the Emax in [2] (setting [14]) worked out at 73%; in data set [3] (HEK293 cells, 48 hours) it was 101%. Also, the Microsomal bioavailability (predicted from microsomes) in [1] is 2%. Further, the EC50 in data set [3] is 2.51 nM; in [5], 1260 nM; in [6], 6.31 nM; in [9], 1580 nM. For the same compound, the Ki in data set [4] was 50.1 nM; in data set [7], 1000 nM. In addition, the “R-SAT Erα % Eff” value in data set [5] turned out to be 48%. Also, the “Luciferase Erα % Eff” value in data set [9] is on record as 37%.
Regarding `N#CC(Cc1ccc(O)cc1)c1ccc(O)cc1` (stereo not drawn) [DPN], in data set [11], the “effect on Taxol-induced allodynia” value is given as “active”.
Regarding `Cn1c(=O)c2c(ncn2C)n(C)c1=O` [caffeine], in data set [12], the “apparent permeability coefficient (Papp) across MatTek EpiOral buccal tissues” value is 27.5 ×10⁻⁶ cm/s and 22.3 ×10⁻⁶ cm/s.
For the compound `NCC1(CC(=O)O)CCCCC1` [gabapentin], the “maximum effect (MPE)” value in data set [11] (gabapentin i.p.) was found to be 39%. Besides, the “effect on Taxol-induced allodynia” value in [11] is recorded as “relatively ineffective”.

One may read the microsomal CLint as the capacity of the preparation to metabolise the compound, expressed as a volume cleared per time. The low end stands for greater metabolic stability, the high end for faster metabolism.

These data come from patent US9061981B2, “Diphenyl substituted cyclohexane derivatives, useful as modulators of the estrogen receptors beta” (Acadia Pharmaceuticals Inc., priority 2011, dated 2015).
